# According to patent publication US20100267561A1, “HERBICIDAL PYRIDAZINONE DERIVATIVES” (priority 2007, published 2010):
# Legend:
# Format in all cases: in vivo
# [1] = system: large crabgrass (Digitaria sanguinalis); test: Test A pre-/postemergence plant response
# Outline: (§1)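 Seeds in loam soil/sand blend treated preemergence by directed soil spray, with simultaneous postemergence spray on 2–10 cm plants at one- to two-leaf stage; compounds in non-phytotoxic solvent with surfactant. Injury visually rated versus untreated controls after about 10 days in greenhouse, 0 (no effect) to 100 (complete control).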
# [2] = system: wheat (Triticum aestivum); test: Test A pre-/postemergence plant response
# Outline: as §1
# [3] = system: morningglory (Ipomoea coccinea); test: Test A pre-/postemergence plant response
# Outline: as §1
# [4] = system: velvetleaf (Abutilon theophrasti); test: Test A pre-/postemergence plant response
# Outline: as §1
# [5] = system: pigweed (Amaranthus retroflexus); test: Test A pre-/postemergence plant response
# Outline: as §1
# [6] = system: barnyardgrass (Echinochloa crus-galli); test: Test A pre-/postemergence plant response
# Outline: as §1
# [7] = system: corn (Zea mays); test: Test A pre-/postemergence plant response
# Outline: as §1
# [8] = system: giant foxtail (Setaria faberi); test: Test A pre-/postemergence plant response
# Outline: as §1
# [9] = system: green foxtail (Setaria viridis); test: Test B pre-/postemergence plant response
# From the text: (§2) Seeds of plant species selected from blackgrass (Alopecurus myosuroides), downy bromegrass (Bromus tectorum), green foxtail (Setaria viridis), Italian ryegrass (Lolium multiflorum), wheat (Triticum aestivum), wild oat (Avena fatua), catchweed bedstraw (Galium aparine), bermudagrass (Cynodon dactylon), surinam grass (Brachiaria decumbens), cocklebur (Xanthium strumarium), corn (Zea mays), large crabgrass (Digitaria sanguinalis), woolly cupgrass (Eriochloa villosa), giant foxtail (Setaria faberii), goosegrass (Eleusine indica), johnsongrass (Sorghum halepense), kochia (Kochia scoparia), lambsquarters (Chenopodium album), morningglory (Ipomoea coccinea), eastern black (E.B.) nightshade (Solanum ptycanthum), yellow nutsedge (Cyperus esculentus), pigweed (Amaranthus retroflexus), common ragweed (Ambrosia elation), Russian thistle (Salsola iberica), soybean (Glycine max), common (oilseed) sunflower (Helianthus annuus), and velvetleaf (Abutilon theophrasti) were planted and treated preemergence with test chemicals formulated in a non-phytotoxic solvent mixture which included a surfactant.
# (§3) At the same time, plants selected from these crop and weed species and also winter barley (Hordeum vulgare), canarygrass (Phalaris minor), chickweed (Stellaria media) and windgrass (Apera spica-venti) were treated with postemergence applications of some of the test chemicals formulated in the same manner. Plants ranged in height from 2 to 18 cm (1- to 4-leaf stage) for postemergence treatments.
# (§4) Plant species in the flooded paddy test consisted of rice (Oryza sativa), umbrella sedge (Cyperus difformis), ducksalad (Heteranthera limosa) and barnyardgrass (Echinochloa crus-galli) grown to the 2-leaf stage for testing. At time of treatment, test pots were flooded to 3 cm above the soil surface, treated by application of test compounds directly to the paddy water, and then maintained at that water depth for the duration of the test. Treated plants and controls were maintained in a greenhouse for 13 to 15 days, after which time all species were compared to controls and visually evaluated. Plant response ratings, summarized in Table B, are based on a scale of 0 to 100 where 0 is no effect and 100 is complete control. A dash (-) response means no test result.
# [10] = system: wheat (Triticum aestivum); test: Test B pre-/postemergence plant response
# From the text: as §2, §3, §4
# [11] = system: johnsongrass (Sorghum halepense); test: Test B pre-/postemergence plant response
# From the text: as §2, §3, §4
# [12] = Postemergence, 1000 g ai/ha, 0 to 100 scale, 0 no effect, 100 complete control
# [13] = Preemergence, 1000 g ai/ha, 0 to 100 scale (0 no effect, 100 complete control)
# [14] = Preemergence, 31 g ai/ha, 0 to 100 scale, 0 no effect, 100 complete control
# [15] = Preemergence, 62 g ai/ha, scale 0 to 100
# [16] = Preemergence, 125 g ai/ha, scale 0 to 100
# [17] = Preemergence, 250 g ai/ha, scale 0 to 100
# [18] = Postemergence, 125 g ai/ha, 0 to 100 scale, 0 no effect, 100 complete control
# [19] = Postemergence, 500 g ai/ha, 0 to 100 scale, 0 no effect, 100 complete control
# [20] = Preemergence, 125 g ai/ha, 0 to 100 scale (0 no effect, 100 complete control)
# [21] = Preemergence, 500 g ai/ha, 0 to 100 scale (0 no effect, 100 complete control)
# [22] = Postemergence, 31 g ai/ha, scale 0 to 100, 0 no effect, 100 complete control
# [23] = Postemergence, 62 g ai/ha, scale 0 to 100
# [24] = Postemergence, 125 g ai/ha, scale 0 to 100
# [25] = Postemergence, 250 g ai/ha, scale 0 to 100
# [26] = Postemergence, 31 g ai/ha, 0 to 100 scale (0 no effect, 100 complete control)
# [27] = Preemergence, 31 g ai/ha, 0 to 100 scale, 0 is no effect, 100 is complete control
# [28] = 8 g ai/ha, postemergence, 0-100 scale
# [29] = Postemergence, 16 g ai/ha, scale 0 to 100
# [30] = Postemergence, 31 g ai/ha, scale 0 to 100
# [31] = Postemergence, 62 g ai/ha, scale 0 to 100, 0 no effect, 100 complete control
# [32] = Preemergence, 31 g ai/ha, scale 0 to 100 (0 no effect, 100 complete control)
# [33] = Preemergence, 62 g ai/ha, 0 to 100 scale, 0 no effect, 100 complete control
# [34] = Preemergence, 8 g ai/ha, scale 0 to 100
# [35] = Preemergence, 16 g ai/ha, scale 0 to 100
compound,measurement,setting,value
Cc1cc(-c2ccc(C(F)(F)F)cc2)nn1-c1c(OC(=O)C(C)(C)C)cnn(C)c1=O [Compound 2],"Plant response rating, Crabgrass, Large",[1]; [12],80
same,"Plant response rating, Crabgrass, Large",[1]; [13],100
same,"Plant response rating, Wheat",[2]; [12],90
same,"Plant response rating, Wheat",[2]; [13],90
same,"Plant response rating, Morningglory",[3]; [12],0
same,"Plant response rating, Morningglory",[3]; [13],0
same,"Plant response rating, Velvetleaf",[4]; [12],40
same,"Plant response rating, Velvetleaf",[4]; [13],60
same,"Plant response rating, Pigweed",[5]; [12],0
same,"Plant response rating, Pigweed",[5]; [13],0
same,"Plant response rating, Barnyardgrass",[6]; [12],100
same,"Plant response rating, Barnyardgrass",[6]; [13],100
same,"Plant response rating, Corn",[7]; [12],90
same,"Plant response rating, Corn",[7]; [13],80
same,"Plant response rating, Foxtail, Giant",[8]; [12],90
same,"Plant response rating, Foxtail, Giant",[8]; [13],100
same,"Plant response rating, Foxtail, Green",[9]; [14],90
same,"Plant response rating, Foxtail, Green",[9]; [15],95
same,"Plant response rating, Foxtail, Green",[9]; [16],100
same,"Plant response rating, Foxtail, Green",[9]; [17],100
same,"Plant response rating, Wheat",[10]; [14],30
same,"Plant response rating, Wheat",[10]; [15],50
same,"Plant response rating, Wheat",[10]; [16],60
same,"Plant response rating, Wheat",[10]; [17],75
same,"Plant response rating, Johnsongrass",[11]; [15],80
same,"Plant response rating, Johnsongrass",[11]; [17],80
4-[3-(4-chlorophenyl)-5-methyl-1H-pyrazol-3-yl]-5-hydroxy-2-methyl-3(2H)-pyridazinone [Compound 3],"Plant response rating, Crabgrass, Large",[1]; [18],100
same,"Plant response rating, Crabgrass, Large",[1]; [19],100
same,"Plant response rating, Crabgrass, Large",[1]; [20],100
same,"Plant response rating, Crabgrass, Large",[1]; [21],100
same,"Plant response rating, Wheat",[2]; [18],70
same,"Plant response rating, Wheat",[2]; [19],90
same,"Plant response rating, Wheat",[2]; [20],70
same,"Plant response rating, Wheat",[2]; [21],90
same,"Plant response rating, Morningglory",[3]; [18],50
same,"Plant response rating, Morningglory",[3]; [19],60
same,"Plant response rating, Morningglory",[3]; [20],0
same,"Plant response rating, Morningglory",[3]; [21],0
same,"Plant response rating, Velvetleaf",[4]; [18],0
same,"Plant response rating, Velvetleaf",[4]; [19],50
same,"Plant response rating, Velvetleaf",[4]; [20],0
same,"Plant response rating, Velvetleaf",[4]; [21],10
same,"Plant response rating, Pigweed",[5]; [18],0
same,"Plant response rating, Pigweed",[5]; [19],10
same,"Plant response rating, Pigweed",[5]; [20],0
same,"Plant response rating, Pigweed",[5]; [21],0
same,"Plant response rating, Barnyardgrass",[6]; [18],100
same,"Plant response rating, Barnyardgrass",[6]; [19],100
same,"Plant response rating, Barnyardgrass",[6]; [20],90
same,"Plant response rating, Barnyardgrass",[6]; [21],100
same,"Plant response rating, Corn",[7]; [18],90
same,"Plant response rating, Corn",[7]; [19],100
same,"Plant response rating, Corn",[7]; [20],80
same,"Plant response rating, Corn",[7]; [21],90
same,"Plant response rating, Foxtail, Giant",[8]; [18],100
same,"Plant response rating, Foxtail, Giant",[8]; [19],100
same,"Plant response rating, Foxtail, Giant",[8]; [20],100
same,"Plant response rating, Foxtail, Giant",[8]; [21],100
same,"Plant response rating, Foxtail, Green",[9]; [22],90
same,"Plant response rating, Foxtail, Green",[9]; [23],100
same,"Plant response rating, Foxtail, Green",[9]; [24],100
same,"Plant response rating, Foxtail, Green",[9]; [25],100
same,"Plant response rating, Foxtail, Green",[9]; [14],100
same,"Plant response rating, Foxtail, Green",[9]; [15],100
same,"Plant response rating, Foxtail, Green",[9]; [16],100
same,"Plant response rating, Foxtail, Green",[9]; [17],100
same,"Plant response rating, Wheat",[10]; [22],80
same,"Plant response rating, Wheat",[10]; [23],90
same,"Plant response rating, Wheat",[10]; [24],100
same,"Plant response rating, Wheat",[10]; [25],100
same,"Plant response rating, Wheat",[10]; [14],45
same,"Plant response rating, Wheat",[10]; [15],75
same,"Plant response rating, Wheat",[10]; [16],95
same,"Plant response rating, Wheat",[10]; [17],98
same,"Plant response rating, Johnsongrass",[11]; [22],0
same,"Plant response rating, Johnsongrass",[11]; [23],80
same,"Plant response rating, Johnsongrass",[11]; [14],80
same,"Plant response rating, Johnsongrass",[11]; [15],95
same,"Plant response rating, Johnsongrass",[11]; [16],100
same,"Plant response rating, Johnsongrass",[11]; [17],100
Cc1cc(-c2ccc(Cl)cc2)nn1-c1c(OC(=O)OCC(C)C)cnn(C)c1=O [Compound 57],"Plant response rating, Crabgrass, Large",[1]; [26],0
same,"Plant response rating, Crabgrass, Large",[1]; [18],80
same,"Plant response rating, Crabgrass, Large",[1]; [27],50
same,"Plant response rating, Crabgrass, Large",[1]; [20],100
same,"Plant response rating, Wheat",[2]; [26],0
same,"Plant response rating, Wheat",[2]; [18],50
same,"Plant response rating, Wheat",[2]; [27],0
same,"Plant response rating, Wheat",[2]; [20],70
same,"Plant response rating, Morningglory",[3]; [26],0
same,"Plant response rating, Morningglory",[3]; [18],0
same,"Plant response rating, Morningglory",[3]; [27],0
same,"Plant response rating, Morningglory",[3]; [20],0
same,"Plant response rating, Velvetleaf",[4]; [26],0
same,"Plant response rating, Velvetleaf",[4]; [18],0
same,"Plant response rating, Velvetleaf",[4]; [27],0
same,"Plant response rating, Velvetleaf",[4]; [20],0
same,"Plant response rating, Pigweed",[5]; [26],0
same,"Plant response rating, Pigweed",[5]; [18],0
same,"Plant response rating, Pigweed",[5]; [27],0
same,"Plant response rating, Pigweed",[5]; [20],0
same,"Plant response rating, Barnyardgrass",[6]; [26],0
same,"Plant response rating, Barnyardgrass",[6]; [18],80
same,"Plant response rating, Barnyardgrass",[6]; [27],60
same,"Plant response rating, Barnyardgrass",[6]; [20],100
same,"Plant response rating, Corn",[7]; [26],0
same,"Plant response rating, Corn",[7]; [18],60
same,"Plant response rating, Corn",[7]; [27],0
same,"Plant response rating, Corn",[7]; [20],50
same,"Plant response rating, Foxtail, Giant",[8]; [26],0
same,"Plant response rating, Foxtail, Giant",[8]; [18],90
same,"Plant response rating, Foxtail, Giant",[8]; [27],90
same,"Plant response rating, Foxtail, Giant",[8]; [20],100
same,"Foxtail, Green plant response rating",[9]; [28],80
same,"Plant response rating, Foxtail, Green",[9]; [29],95
same,"Plant response rating, Foxtail, Green",[9]; [30],100
same,"Plant response rating, Foxtail, Green",[9]; [31],100
same,"Plant response rating, Foxtail, Green",[9]; [32],100
same,"Plant response rating, Foxtail, Green",[9]; [33],100
same,"Foxtail, Green plant response rating",[9]; [34],70
same,"Foxtail, Green plant response rating",[9]; [35],100
same,Wheat plant response rating,[10]; [28],30
same,"Plant response rating, Wheat",[10]; [29],45
same,"Plant response rating, Wheat",[10]; [30],90
same,"Plant response rating, Wheat",[10]; [31],90
same,"Plant response rating, Wheat",[10]; [32],40
same,"Plant response rating, Wheat",[10]; [33],50
same,Wheat plant response rating,[10]; [35],15
same,Johnsongrass plant response rating,[11]; [28],15
same,"Plant response rating, Johnsongrass",[11]; [29],65
same,"Plant response rating, Johnsongrass",[11]; [30],90
same,"Plant response rating, Johnsongrass",[11]; [31],100
same,"Plant response rating, Johnsongrass",[11]; [32],90
same,"Plant response rating, Johnsongrass",[11]; [33],100
same,Johnsongrass plant response rating,[11]; [34],65
same,Johnsongrass plant response rating,[11]; [35],90
